Source: PMC10059083, “Design, Synthesis, and Biological Evaluation of Novel Hydroxamic Acid-Based Organoselenium Hybrids” (Pharmaceuticals, 2023)
≈ marks a conversion by molar mass, not a printed value.

Columns and labels:
C. albicans = assay: MIC by microdilution, C. albicans; format: cell-based; details: Candida albicans, read-out: MIC C. albicans
Description: The encouraging antitumor properties of the OSe compounds motivated us to evaluate their corresponding antimicrobial activities against the C. albicans fungal strain, S. aureus Gram-positive bacteria, and E. coli Gram-negative bacteria. Therefore, we applied the agar diffusion and minimum inhibitory concentration (MIC) methods using clotrimazole antifungal and ampicillin antibacterial drugs as standards.
The products’ antimicrobial properties were examined according to the previously reported method, via agar well diffusion assay against E. coli, S. aureus, and C. albicans. A microdilution method was also used to record MICs (M), following the previously reported procedure. Experimental details can be found in the Supplementary Materials.
Briefly, a concentration of 1 mM was prepared for each compound by dissolving in DMSO. Paper discs of standard size […] were sterilized in an autoclave and soaked in 9 µL of the test compounds, and placed in the Petri dishes, which in turn contain a nutrient media (agar 9 g, peptone 5 g, and beef extract 3 g) seeded with the dedicated strain. Incubation lasted for 13 h at 36 0C. […]

[1] = ABTS radical scavenging assay
Protocol: The antioxidant activities of the OSe compounds were intensively investigated because these are usually the cause of their chemopreventive potency. Their redox activities were evaluated via DPPH and ABTS assays, using ascorbic acid as the standard. We spectrophotometrically measured the antioxidant efficiency of the OSe compounds by their ability to decolorise the DPPH^. and ABTS^. radicals at […] (Figure 2).
The compounds’ antioxidant properties were assessed by in vitro bioassays using DPPH and ABTS, following the reported method. Details are in the Supplementary Materials.
Figure 4 Estimation of the OSe compounds’ redox activities via DPPH and ABTS experiments. All tests are mean ± S.D. ABTS experiment: absorbance was followed at 734 nm for OSe compounds (50 µL, 1 mM in MeOH) and ABTS solution (60 µL). DPPH Absorbance was monitored at 517 nm for OSe compounds (200 µL, 1 mM in MeOH) and DPPH (400 µL) after 30 min. […]
1.1.3.2. The ABTS bioassay
The antioxidant activity of the investigated compounds was assessed using 2,2’-azino-bis(3-ethylbenzothiazoline-6-sulphonic acid (ABTS) method. The radical cation derived from ABTS was prepared by the reaction of 60 mM ABTS solution with 0.3 M manganese dioxide solution in 0.1M phosphate buffer, pH 7. Then, the mixture was shaken, centrifuged, filtered, and the absorbance (Acontrol ) of […]
the resulting green-blue solution (ABTS radical solution) was measured at wavelength 734 nm. Then, […] of 1 mg/ml test compound in phosphate-buffered methanol was added. The absorbance (Atest) was measured. The reduction in color intensity was expressed as % inhibition. The % inhibition for each […]
compound is calculated from the following equation
Inhibition% = (Acontrol-Asample)/(Acontrol)*100
Ascorbic acid (vitamin C) was used as a standard antioxidant (positive control). A blank sample was run […]
without ABTS and using MeOH/phosphate buffer (1:1) instead of the sample. A negative control sample […]
was run with MeOH/phosphate buffer (1:1) instead of a tested compound.

Nc1ccc([Se]CC(=O)NOCc2ccccc2)cc1 [Compound 8, 2-((4-Aminophenyl)selanyl)-N-(benzyloxy)acetamide]
MIC (C. albicans): 4 µM (≈ 1.34 µg/mL)
antioxidant (scavenging) activity in the ABTS assay ([1]; compounds 50 µL, 1 mM in MeOH, ABTS solution 60 µL, absorbance at 734 nm): 73.9%
IC50 ([1]; concentration causing 50% decrease in absorbance, ABTS assay): 27.24 ± 0.2 µM
